US10760110B2, “Antibiotic testing and screening system” (priority 2017, dated 2020)
In brackets after ≈: the same amount, converted by molar mass. Read-outs that look alike come from different tables or passages of the source.

Legend:
Conditions in all cases: Klebsiella pneumoniae
[1] = tested on: K. pneumoniae NVT1001 and its ΔompK35/36 and/or ΔramR mutants; experiment: Etest MIC, OmpK35/36 loss and AcrAB-TolC overexpression (ΔramR) strains (Table 6); format: cell-based, Klebsiella pneumoniae
Outline: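 Etest MICs against K. pneumoniae NVT1001 and its ΔompK35/36 and/or ΔramR mutants, rounded up to the next two-fold value. For NVT1001 carrying pACYC177-blaOXA-48, ceftazidime and cefotaxime MICs by CLSI broth microdilution, interpreted with CLSI 2017 breakpoints.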

[2] = tested on: K. pneumoniae NVT1001 ΔramRΔompK35/36 mutant and its revertants; experiment: Etest MIC, ΔramRΔompK35/36 mutant and its revertants (Table 7); format: cell-based
[3] = tested on: K. pneumoniae NVT1001 strains with carbapenemase plasmids; experiment: Etest MIC of β-lactams, OmpK35/36 loss, ΔramR and/or carbapenemase (Table 9); format: cell-based, Klebsiella pneumoniae
Procedure: DNA fragments of the resistance genes along with their flanking regions were amplified from clinical plasmids via PCR with specific primer pairs. The resulting PCR fragments were digested and then cloned into the plasmid pACYC177 or pACYC184. The resulting plasmids were then transformed into K. pneumoniae strain NVT1001 via electroporation. The recombinant bacteria were plated onto LB agar plates containing kanamycin (50 mg/L) or chloramphenicol (50 mg/L), and the presence of the cloned gene was confirmed via PCR and DNA sequencing.
The MICs of antibiotics were determined using the Etest (Biodisk AB, Sweden) according to the manufacturer's instructions. The MICs from the Etest, which fall between standard two-fold dilutions, were rounded up to the next highest two-fold value. The MICs of ceftazidime and cefotaxime against K. pneumoniae NVT1001 harbouring the pACYC177 plasmid with blaOXA-48 were further determined using a broth microdilution test according to the recommendations of the CLSI,^25 and the results were interpreted according to the breakpoints established by the CLSI in 2017.^25 Meanwhile, due to the lack of CLSI breakpoints in 2016 and 2017, the results for cephalothin were interpreted according to the breakpoints established by the CLSI in 2015,^26 and the results for moxifloxacin were interpreted according to the breakpoints established by the EUCAST in 2017.^27

Work on `CCO/N=C(\C(=O)N[C@@H]1C(=O)N2C(C(=O)[O-])=C(Sc3nc(-c4cc[n+](C)cc4)cs3)CS[C@H]12)c1nsc(N)n1` [Ceftaroline] yielded an MIC ([1]; WT, NVT1001, read-out: MIC) of 0.25 µg/mL (≈ 0.413 µM), an MIC ([1]; Δ35, ΔompK35 mutant) of 0.25 µg/mL (≈ 0.413 µM) and an MIC ([1]; Δ35/36, ΔompK35/36 mutant) of 1 µg/mL (≈ 1.65 µM). The MIC ([1]; Δ36, ΔompK36 mutant) was 0.5 µg/mL (≈ 0.827 µM), the MIC ([1]; ΔramR mutant) was 1 µg/mL (≈ 1.65 µM) and the MIC ([1]; ΔramRΔ35, ΔramRΔompK35 mutant) was 1 µg/mL (≈ 1.65 µM). The MIC ([1]; ΔramRΔ35/36, ΔramRΔompK35/36 mutant) was 4 µg/mL (≈ 6.61 µM), the MIC ([1]; ΔramRΔ36, ΔramRΔompK36 mutant) was 4 µg/mL (≈ 6.61 µM) and the MIC ([2]; ΔramRΔompK35/36::ompK35/36 revertant) was 1 µg/mL. The MIC ([2]; ΔramRΔompK35/36::ompK35 revertant) was 4 µg/mL, the MIC ([2]; ΔramRΔompK35/36::ompK36 revertant) was 1 µg/mL and the MIC ([2]; ΔramRΔompK35/36::ramR revertant) was 1 µg/mL. It also gave an MIC ([2]; ΔramRΔompK35/36::ramR::ompK35/36 revertant) of 0.25 µg/mL, an MIC ([2]; ΔramRΔompK35/36::ramR::ompK35 revertant) of 0.5 µg/mL and an MIC ([2]; ΔramRΔompK35/36::ramR::ompK36 revertant) of 0.5 µg/mL. The MIC ([2]; ΔramRΔompK35/36 mutant) was 4 µg/mL, the MIC ([3]; IMP-8 on pACYC177, WT (NVT1001), read-out: MIC) was 64 µg/mL and the MIC ([3]; IMP-8 on pACYC177, Δ35 (ΔompK35 mutant)) was 64 µg/mL. The MIC ([3]; IMP-8 on pACYC177, Δ35/36 (ΔompK35/36 mutant)) was > 256 µg/mL, the MIC ([3]; IMP-8 on pACYC177, Δ36 (ΔompK36 mutant)) was 64 µg/mL and the MIC ([3]; IMP-8 on pACYC177, ΔramR mutant) was 32 µg/mL. The MIC ([3]; IMP-8 on pACYC177, ΔramRΔ35 (ΔramRΔompK35 mutant)) was 64 µg/mL, the MIC ([3]; IMP-8 on pACYC177, ΔramRΔ35/36 (ΔramRΔompK35/36 mutant)) was 128 µg/mL and the MIC ([3]; IMP-8 on pACYC177, ΔramRΔ36 (ΔramRΔompK36 mutant)) was 64 µg/mL. For the same compound, the MIC ([3]; KPC-2 on pACYC177, WT (NVT1001), read-out: MIC) was 256 µg/mL, the MIC ([3]; KPC-2 on pACYC177, Δ35 (ΔompK35 mutant)) was > 256 µg/mL and the MIC ([3]; KPC-2 on pACYC177, Δ35/36 (ΔompK35/36 mutant)) was > 256 µg/mL. The MIC ([3]; KPC-2 on pACYC177, Δ36 (ΔompK36 mutant)) was > 256 µg/mL, the MIC ([3]; KPC-2 on pACYC177, ΔramR mutant) was > 256 µg/mL and the MIC ([3]; KPC-2 on pACYC177, ΔramRΔ35 (ΔramRΔompK35 mutant)) was > 256 µg/mL. For the same compound, the MIC ([3]; KPC-2 on pACYC177, ΔramRΔ35/36 (ΔramRΔompK35/36 mutant)) was > 256 µg/mL, the MIC ([3]; KPC-2 on pACYC177, ΔramRΔ36 (ΔramRΔompK36 mutant)) was > 256 µg/mL and the MIC ([3]; KPC-3 on pACYC177, WT (NVT1001), read-out: MIC) was 256 µg/mL. For the same compound, the MIC ([3]; KPC-3 on pACYC177, Δ35 (ΔompK35 mutant)) was 256 µg/mL, the MIC ([3]; KPC-3 on pACYC177, Δ35/36 (ΔompK35/36 mutant)) was > 256 µg/mL and the MIC ([3]; KPC-3 on pACYC177, Δ36 (ΔompK36 mutant)) was > 256 µg/mL. For the same compound, the MIC ([3]; KPC-3 on pACYC177, ΔramR mutant) was 256 µg/mL, the MIC ([3]; KPC-3 on pACYC177, ΔramRΔ35 (ΔramRΔompK35 mutant)) was 256 µg/mL and the MIC ([3]; KPC-3 on pACYC177, ΔramRΔ35/36 (ΔramRΔompK35/36 mutant)) was > 256 µg/mL. The MIC ([3]; KPC-3 on pACYC177, ΔramRΔ36 (ΔramRΔompK36 mutant)) was > 256 µg/mL, the MIC ([3]; NDM-1 on pACYC177, WT (NVT1001), read-out: MIC) was > 256 µg/mL and the MIC ([3]; NDM-1 on pACYC177, Δ35 (ΔompK35 mutant)) was > 256 µg/mL. For the same compound, the MIC ([3]; NDM-1 on pACYC177, Δ35/36 (ΔompK35/36 mutant)) was > 256 µg/mL, the MIC ([3]; NDM-1 on pACYC177, Δ36 (ΔompK36 mutant)) was > 256 µg/mL and the MIC ([3]; NDM-1 on pACYC177, ΔramR mutant) was > 256 µg/mL. For the same compound, the MIC ([3]; NDM-1 on pACYC177, ΔramRΔ35 (ΔramRΔompK35 mutant)) was > 256 µg/mL, the MIC ([3]; NDM-1 on pACYC177, ΔramRΔ35/36 (ΔramRΔompK35/36 mutant)) was > 256 µg/mL and the MIC ([3]; NDM-1 on pACYC177, ΔramRΔ36 (ΔramRΔompK36 mutant)) was > 256 µg/mL. For the same compound, the MIC ([3]; OXA-48 on pACYC177, WT (NVT1001), read-out: MIC) was 8 µg/mL, the MIC ([3]; OXA-48 on pACYC177, Δ35 (ΔompK35 mutant)) was 8 µg/mL and the MIC ([3]; OXA-48 on pACYC177, Δ35/36 (ΔompK35/36 mutant)) was 32 µg/mL. For the same compound, the MIC ([3]; OXA-48 on pACYC177, Δ36 (ΔompK36 mutant)) was 8 µg/mL, the MIC ([3]; OXA-48 on pACYC177, ΔramR mutant) was 8 µg/mL and the MIC ([3]; OXA-48 on pACYC177, ΔramRΔ35 (ΔramRΔompK35 mutant)) was 8 µg/mL. For the same compound, the MIC ([3]; OXA-48 on pACYC177, ΔramRΔ35/36 (ΔramRΔompK35/36 mutant)) was 16 µg/mL, the MIC ([3]; OXA-48 on pACYC177, ΔramRΔ36 (ΔramRΔompK36 mutant)) was 8 µg/mL and the MIC ([3]; VIM-1 on pACYC177, WT (NVT1001), read-out: MIC) was 256 µg/mL. The MIC ([3]; VIM-1 on pACYC177, Δ35 (ΔompK35 mutant)) was > 256 µg/mL, the MIC ([3]; VIM-1 on pACYC177, Δ35/36 (ΔompK35/36 mutant)) was > 256 µg/mL and the MIC ([3]; VIM-1 on pACYC177, Δ36 (ΔompK36 mutant)) was > 256 µg/mL. The MIC ([3]; VIM-1 on pACYC177, ΔramR mutant) was > 256 µg/mL, the MIC ([3]; VIM-1 on pACYC177, ΔramRΔ35 (ΔramRΔompK35 mutant)) was > 256 µg/mL and the MIC ([3]; VIM-1 on pACYC177, ΔramRΔ35/36 (ΔramRΔompK35/36 mutant)) was > 256 µg/mL. For the same compound, the MIC ([3]; VIM-1 on pACYC177, ΔramRΔ36 (ΔramRΔompK36 mutant)) was > 256 µg/mL, the MIC ([3]; no supplemental plasmid, WT (NVT1001), read-out: MIC) was 0.25 µg/mL and the MIC ([3]; no supplemental plasmid, Δ35 (ΔompK35 mutant)) was 0.25 µg/mL. For the same compound, the MIC ([3]; no supplemental plasmid, Δ35/36 (ΔompK35/36 mutant)) was 1 µg/mL, the MIC ([3]; no supplemental plasmid, Δ36 (ΔompK36 mutant)) was 0.5 µg/mL and the MIC ([3]; no supplemental plasmid, ΔramR mutant) was 1 µg/mL. It also gave an MIC ([3]; no supplemental plasmid, ΔramRΔ35 (ΔramRΔompK35 mutant)) of 1 µg/mL, an MIC ([3]; no supplemental plasmid, ΔramRΔ35/36 (ΔramRΔompK35/36 mutant)) of 4 µg/mL and an MIC ([3]; no supplemental plasmid, ΔramRΔ36 (ΔramRΔompK36 mutant)) of 4 µg/mL.
